Measurements from patent publication US20060122275A1, “Agentfor reducing side effects of diclofenac” (priority 2002, published 2006).

Experiments:
IP receptor = IP receptor (Homo sapiens, UniProt P43119); conditions: stated in words, no test described; cited from earlier work
EP4 receptor = EP4 receptor (Homo sapiens, UniProt P35408); conditions: stated in words, no test described; cited from earlier work
EP3 receptor = target: T1, EP3 receptor (Homo sapiens, UniProt P43115); conditions: stated in words, no test described; cited from earlier work
T1 sequence (P43115 1-390): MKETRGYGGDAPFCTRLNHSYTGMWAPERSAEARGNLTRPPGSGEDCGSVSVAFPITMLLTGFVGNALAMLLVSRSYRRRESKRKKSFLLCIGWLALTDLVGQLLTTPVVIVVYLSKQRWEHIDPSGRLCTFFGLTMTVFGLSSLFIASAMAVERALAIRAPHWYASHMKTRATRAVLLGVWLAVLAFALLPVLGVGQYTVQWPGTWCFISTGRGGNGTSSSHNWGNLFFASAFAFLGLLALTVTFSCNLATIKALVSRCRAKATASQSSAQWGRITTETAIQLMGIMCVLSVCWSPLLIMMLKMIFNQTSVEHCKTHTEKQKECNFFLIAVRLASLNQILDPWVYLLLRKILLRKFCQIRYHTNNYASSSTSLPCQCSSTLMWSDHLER

EP1 receptor = target: T2, EP1 receptor (Homo sapiens, UniProt P34995); conditions: stated in words, no test described; cited from earlier work
T2 sequence (P34995 1-402): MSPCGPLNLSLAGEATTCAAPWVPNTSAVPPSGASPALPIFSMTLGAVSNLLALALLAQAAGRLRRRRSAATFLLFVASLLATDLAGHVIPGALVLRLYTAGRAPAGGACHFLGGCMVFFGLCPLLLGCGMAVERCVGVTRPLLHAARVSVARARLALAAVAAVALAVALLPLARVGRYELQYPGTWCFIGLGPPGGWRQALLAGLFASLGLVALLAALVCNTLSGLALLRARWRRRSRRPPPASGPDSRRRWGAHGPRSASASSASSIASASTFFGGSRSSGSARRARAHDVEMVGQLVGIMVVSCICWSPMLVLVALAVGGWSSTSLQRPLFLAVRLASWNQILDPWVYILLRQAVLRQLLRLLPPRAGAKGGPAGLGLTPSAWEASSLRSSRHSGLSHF

[1] = system: Mycobacterium butyricum-induced inflammation, squeaking reaction; experiment: Analgesic effect in inflammation model (squeaking reaction); type: in vivo, Lew/Crj line male rats; conditions: OU administered vs OU un-administered group
Method: After measuring body weight of Lew/Crj line male rats, Mycobacterium butyricum cells suspended in liquid paraffin was administered by intracutaneous injection into the sole of left-side hind leg of each animal, under ether anesthesia at a dose of 0.1 ml/animal, thereby inducing inflammation. Also, this day was used as the 1st day of the inflammation induction treatment. […] Also, they were fasted for 16 to 24 hours under free water taking from the previous day of the measurement. […] A rat which was squeaking reaction-negative once or more by the 4 times of judgment after the sample liquid administration was judged analgesic effect-positive, and efficacy ratio (the number of animals having analgesic effect/the number of tested animals) was calculated. In addition, ulcer inhibition ratio was calculated in the same manner as described in (1).

acid secretion = conditions: stated in words, no test described; cited from earlier work
[2] = system: gastrointestinal mucous membrane; conditions: stated in words, no test described; cited from earlier work
[3] = system: glycerol-induced nephropathy; experiment: Effect of ornoprostil on glycerol-induced nephropathy; type: in vivo, SPF/Crj line male rats; conditions: serum 48 hours after glycerol, rats
Method: SPF/Crj line male rats (9 week-old) were measured for their body weight and then divided into groups in such a manner that average of body weights of respective groups became almost uniform. A 50% glycerol solution (medium: physiological saline) (10 ml/kg) was administered by subcutaneous injection to each rat which had been abstained from water for 48 hours (±2 hours) but under feeding, and about 1.5 ml of blood was collected 48 hours thereafter from jugular vein under ether anesthesia. […] Water was provided 2 hours after the glycerol administration. The thus collected blood was centrifuged (about 4° C., 3,000 rpm, 15 minutes) to obtain serum. The thus obtained serum was subjected to the measurement of […] (to be referred to as UN) (urease-G1DH method) and creatinine (to be referred to as CRE) (creatininase-F-DAOS method) using a biochemical automatic analyzer (AU 400 (trade name), Olympus Optical).

[4] = GC (subcutaneous) + OU (3 μg) oral
[5] = GC (subcutaneous) + OU (10 μg) oral

Sequence of IP receptor (P43119 whole entry): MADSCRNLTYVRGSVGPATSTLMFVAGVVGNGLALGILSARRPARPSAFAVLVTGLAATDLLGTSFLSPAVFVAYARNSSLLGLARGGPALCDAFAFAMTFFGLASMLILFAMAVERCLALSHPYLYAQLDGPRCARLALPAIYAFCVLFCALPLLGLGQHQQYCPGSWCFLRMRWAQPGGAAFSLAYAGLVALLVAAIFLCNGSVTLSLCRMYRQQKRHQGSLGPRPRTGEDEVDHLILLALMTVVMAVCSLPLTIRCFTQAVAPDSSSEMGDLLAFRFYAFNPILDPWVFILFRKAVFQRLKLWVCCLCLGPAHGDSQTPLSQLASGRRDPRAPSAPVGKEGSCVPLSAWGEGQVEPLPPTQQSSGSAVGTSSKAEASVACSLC
Sequence of EP4 receptor (P35408 whole entry): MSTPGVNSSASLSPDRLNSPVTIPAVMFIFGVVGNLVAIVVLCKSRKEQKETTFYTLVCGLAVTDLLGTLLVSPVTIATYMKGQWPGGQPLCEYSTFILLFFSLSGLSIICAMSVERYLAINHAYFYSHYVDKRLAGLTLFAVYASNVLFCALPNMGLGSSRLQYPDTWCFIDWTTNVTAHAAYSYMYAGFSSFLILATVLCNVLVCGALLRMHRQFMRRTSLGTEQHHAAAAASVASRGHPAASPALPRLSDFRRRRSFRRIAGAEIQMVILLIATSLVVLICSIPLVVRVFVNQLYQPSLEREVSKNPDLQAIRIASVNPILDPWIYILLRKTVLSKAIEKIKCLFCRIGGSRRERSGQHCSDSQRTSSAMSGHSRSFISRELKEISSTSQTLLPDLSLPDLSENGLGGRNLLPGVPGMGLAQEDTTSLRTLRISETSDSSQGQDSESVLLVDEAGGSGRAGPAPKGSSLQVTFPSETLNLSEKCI

Structure (SMILES): CCCCC(C)(O)C/C=C/[C@H]1[C@H](O)CC(=O)[C@@H]1CCCCCCC(=O)O (mixture of isomers) [misoprostol active body]
- Affinity for IP receptor (IP receptor): hardly has affinity
- Affinity for EP4 receptor (EP4 receptor): strong
- Affinity for EP3 receptor (EP3 receptor): strong
- Affinity for EP1 receptor (EP1 receptor): weak

Structure (SMILES): CCCC[C@H](C)C[C@H](O)/C=C/[C@H]1[C@H](O)CC(=O)[C@@H]1CC(=O)CCCCC(=O)OC [ornoprostil, 17S,20-dimethyl-6-oxo-prostaglandin E1 methyl ester]
- Influence of OU administration upon the analgesic effect of NSAID [1]: did not exert influence
- Acid secretion inhibitory activity (acid secretion): weak
- Site protection activity [2]: strong
- CRE [3, 4]: 1.38 mg/dL
- UN [3, 4]: 89.7 mg/dL
- CRE [3, 5]: 1.03 mg/dL
- UN [3, 5]: 79.9 mg/dL
